Data as given in US8669257B2, “Phenazine derivatives and uses thereof as potassium channel modulators” (The Johns Hopkins University, priority 2007, dated 2014).
Entries after “also recorded” stand apart in the source; their conditions may differ.

How the values were obtained:
[1] = test system: human mixed lymphocyte reaction; test: Human mixed lymphocyte reaction (MLR), [3H]-thymidine incorporation; assay type: cell-based; settings: FIG. 1B, n=6
Description: The human MLR was established by coculturing normal human PBMN responder lymphocytes (0.5×10^6) with an equal number of miomycin C-treated stimulator cells in RPMI1640 complete medium. The cells were incubated with varying doses of clofazimine at 37° C. in a humidified atmosphere of 5% CO2 for 4 days. Then 1 μCi of [^3H]-thymidine was added into culture and incubation was continued for 6 h. The cells were harvested and [^3H]-thymidine incorporated into cells was measured in a liquid scintillation counter.

[2] = test system: NFAT luciferase reporter; test: NFAT luciferase reporter assay in Jurkat T-cells; assay type: cell-based; settings: Homo sapiens, PMA/ionomycin, FIG. 1C, n=6
[3] = test system: EGFP-NFATc3 nuclear translocation; test: NFAT nuclear translocation in Jurkat T-cells stimulated by ionomycin; assay type: cell-based, human; settings: 1 μM ionomycin
[4] = molecular target: T1, Kv1.3 (Homo sapiens, UniProt P22001); test: Patch-clamp of Kv1.3 currents in Jurkat T-cells; assay type: cell-based
T1 construct: endogenous in cells; host or cells: Jurkat T-cells
T1 sequence (P22001 whole entry): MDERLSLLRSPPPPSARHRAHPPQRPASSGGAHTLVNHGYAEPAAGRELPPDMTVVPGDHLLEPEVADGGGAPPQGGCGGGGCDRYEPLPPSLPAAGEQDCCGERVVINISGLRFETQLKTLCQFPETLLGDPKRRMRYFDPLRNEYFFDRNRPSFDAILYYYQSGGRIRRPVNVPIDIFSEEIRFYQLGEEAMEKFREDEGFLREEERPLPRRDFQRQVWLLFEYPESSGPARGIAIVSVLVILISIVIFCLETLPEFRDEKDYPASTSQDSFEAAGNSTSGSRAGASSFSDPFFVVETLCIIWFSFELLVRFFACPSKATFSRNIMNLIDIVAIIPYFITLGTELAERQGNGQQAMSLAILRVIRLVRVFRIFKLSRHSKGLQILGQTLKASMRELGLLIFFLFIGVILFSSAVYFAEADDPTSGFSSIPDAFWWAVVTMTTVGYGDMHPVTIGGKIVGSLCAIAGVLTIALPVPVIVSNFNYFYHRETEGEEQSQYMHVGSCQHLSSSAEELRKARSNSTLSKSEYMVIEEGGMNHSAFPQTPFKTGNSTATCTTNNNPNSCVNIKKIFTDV
Description: (§1) Patch pipettes, pulled from glass capillaries (inner diameter 1.5 mm, Kimble products) with a horizontal puller (Sutter instruments, Modell P-97), were fire-polished, and had resistances between 2 and 4 MOhm. Patch-clamp experiments were performed in the tight-seal whole-cell configuration at room temperature (22-24° C.). High-resolution current recordings were acquired by a computer-based patch-clamp amplifier system (EPC-9, HEKA). Immediately following establishment of the whole-cell configuration, every two seconds voltage ramps of 50 ms duration spanning the voltage range of −100 to +100 mV for Jurkat T-cells and −150 to +150 mV for HEK293 were delivered from a holding potential (Vh) of −70 mV for Jurkats and 0 mV for HEK293 cells over a period of 300-600 s. […] Capacitive currents and series resistance were determined and corrected before each voltage ramp using the automatic capacitance compensation of the EPC-9. […] Kv1.3 currents in Jurkat T-cells were measured at +80 mV. Heterologously expressed Kv1.1, Kv1.2, Kv1.3, Kv1.5 and Kv3.1 were assessed at +80 mV except in Figure S7, where currents were additionally measured at the more physiological voltage of 0 mV. CRAC currents in HEK293 cells were assessed at −80 mV. […]

[5] = molecular target: T2, mouse Kv1.3 (Mus musculus, UniProt P16390); test: Patch-clamp of heterologous mouse Kv1.3 expressed in L929 cells; assay type: cell-based
T2 construct: expressed in transfected cells; host or cells: L929 cells
T2 sequence (P16390 whole entry): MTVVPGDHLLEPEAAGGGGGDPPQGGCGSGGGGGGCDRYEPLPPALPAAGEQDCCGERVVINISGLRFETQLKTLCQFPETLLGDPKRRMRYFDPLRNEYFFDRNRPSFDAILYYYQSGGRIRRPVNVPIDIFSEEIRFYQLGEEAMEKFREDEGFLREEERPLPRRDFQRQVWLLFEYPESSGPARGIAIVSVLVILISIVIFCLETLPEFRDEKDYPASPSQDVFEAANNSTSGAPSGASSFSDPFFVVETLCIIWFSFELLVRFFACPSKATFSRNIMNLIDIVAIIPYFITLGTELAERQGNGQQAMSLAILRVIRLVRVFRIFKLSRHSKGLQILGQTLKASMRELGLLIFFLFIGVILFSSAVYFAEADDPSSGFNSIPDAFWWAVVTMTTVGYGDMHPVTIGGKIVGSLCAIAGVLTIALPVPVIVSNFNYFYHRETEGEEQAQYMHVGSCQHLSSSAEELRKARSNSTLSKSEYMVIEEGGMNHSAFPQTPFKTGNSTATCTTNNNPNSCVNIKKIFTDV
Description: as §1

[6] = molecular target: calcium-activated IKCa1 potassium channel (Homo sapiens, UniProt O15554); test: Activity of IKCa1 channel (data not shown); assay type: cell-based; settings: up to 10 μM
calcium-activated IKCa1 potassium channel, sequence (O15554 whole entry): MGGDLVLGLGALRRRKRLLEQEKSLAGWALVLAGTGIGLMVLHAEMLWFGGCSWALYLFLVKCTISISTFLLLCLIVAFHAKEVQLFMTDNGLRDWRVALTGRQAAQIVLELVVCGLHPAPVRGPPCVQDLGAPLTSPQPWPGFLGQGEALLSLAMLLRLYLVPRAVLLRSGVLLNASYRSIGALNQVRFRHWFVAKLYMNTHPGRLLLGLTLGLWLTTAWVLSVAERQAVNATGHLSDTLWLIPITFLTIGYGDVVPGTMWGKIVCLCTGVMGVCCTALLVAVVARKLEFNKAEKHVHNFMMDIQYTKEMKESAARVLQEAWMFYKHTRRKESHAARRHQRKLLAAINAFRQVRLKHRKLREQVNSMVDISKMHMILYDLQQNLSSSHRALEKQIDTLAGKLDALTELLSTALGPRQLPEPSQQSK

[7] = molecular target: TRPM4 channel (Homo sapiens, UniProt Q8TD43); test: Activity of TRPM4 channel (data not shown); assay type: cell-based; settings: up to 10 μM
TRPM4 channel, sequence (Q8TD43 whole entry): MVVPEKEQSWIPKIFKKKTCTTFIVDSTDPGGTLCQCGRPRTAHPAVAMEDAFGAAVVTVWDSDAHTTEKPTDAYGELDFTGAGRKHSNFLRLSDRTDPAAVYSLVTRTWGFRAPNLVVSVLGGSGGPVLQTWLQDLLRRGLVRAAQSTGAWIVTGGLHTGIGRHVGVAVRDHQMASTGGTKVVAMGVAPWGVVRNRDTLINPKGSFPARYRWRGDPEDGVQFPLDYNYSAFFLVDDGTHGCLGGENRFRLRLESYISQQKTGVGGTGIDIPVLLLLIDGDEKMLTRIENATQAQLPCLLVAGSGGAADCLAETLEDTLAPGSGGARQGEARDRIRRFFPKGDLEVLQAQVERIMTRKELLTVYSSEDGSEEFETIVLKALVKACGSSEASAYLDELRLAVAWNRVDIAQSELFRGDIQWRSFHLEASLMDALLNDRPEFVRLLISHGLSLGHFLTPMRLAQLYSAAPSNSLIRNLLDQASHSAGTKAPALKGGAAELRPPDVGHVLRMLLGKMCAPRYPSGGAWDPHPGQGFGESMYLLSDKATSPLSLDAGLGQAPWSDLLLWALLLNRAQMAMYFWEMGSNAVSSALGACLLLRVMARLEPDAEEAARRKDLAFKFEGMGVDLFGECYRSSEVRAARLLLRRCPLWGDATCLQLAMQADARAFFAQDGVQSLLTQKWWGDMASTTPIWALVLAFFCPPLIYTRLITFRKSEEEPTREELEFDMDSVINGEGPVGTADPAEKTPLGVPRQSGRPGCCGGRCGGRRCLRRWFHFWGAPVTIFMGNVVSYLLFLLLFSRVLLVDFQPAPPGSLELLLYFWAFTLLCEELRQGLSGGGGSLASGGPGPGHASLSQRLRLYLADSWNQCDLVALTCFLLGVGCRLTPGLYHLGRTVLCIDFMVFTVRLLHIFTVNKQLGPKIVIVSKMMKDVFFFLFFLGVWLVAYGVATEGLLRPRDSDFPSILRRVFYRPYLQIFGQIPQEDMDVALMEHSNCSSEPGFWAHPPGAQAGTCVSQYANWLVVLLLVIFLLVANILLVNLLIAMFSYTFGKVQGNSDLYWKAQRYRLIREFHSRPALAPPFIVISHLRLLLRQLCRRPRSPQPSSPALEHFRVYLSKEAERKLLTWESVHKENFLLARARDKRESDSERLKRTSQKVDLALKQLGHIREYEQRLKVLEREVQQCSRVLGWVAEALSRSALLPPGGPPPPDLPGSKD

[8] = test system: mouse mixed lymphocyte reaction; test: Murine mixed lymphocyte reaction; assay type: cell-based; settings: n=3
[9] = test system: graft versus host disease; settings: open label study; cited from earlier work

CC(C)/N=c1\cc2n(-c3ccc(Cl)cc3)c3ccccc3nc-2cc1Nc1ccc(Cl)cc1 [clofazimine, Clofazimine]
IC50 [1]: 0.9 ± 0.17 µM | IC50 [2]: 0.113 ± 0.03 µM | effect on NFAT nuclear translocation [3]: blocked the ionomycin-induced nuclear translocation | effect on NFAT nuclear translocation ([3]; listed as Clofazimine): inhibits EGFP-NFATc3 nuclear translocation | Hill coefficient, Kv1.3 current [4]: 0.75 | IC50 ([4]; current at +80 mV, inhibition at 120 s, read-out: IC50, Kv1.3 potassium current): 0.3 µM | Hill coefficient, mouse Kv1.3 [5]: 0.5 | IC50 ([5]; +80 mV): 0.47 µM | effect on IKCa1 channel activity [6]: remained unaffected | effect on TRPM4 channel activity [7]: remained unaffected | effect on murine mixed lymphocyte reaction [8]: failed to observe a dose-dependent inhibition; also recorded: Biphasic effects | patients able to decrease the amount of other medication [9]: ~25%
